Source: patent US20100255469A1, “Cell monitoring and molecular analysis” (priority 2008, published 2010)

Legend:
[1] = tested on: MCF-7 cells; assay: Impedance-based real time cell analysis (XCELLIGENCE) of MCF-7 cells treated with Paclitaxel; design: species or system human; settings: 12.5 nM Paclitaxel
Excerpt: In this example, we have investigated gene expression profiles of human MCF-7 breast cancer cells (human adenocarcinoma breast cancer cell line) obtained from ATCC (passage number: 15, cell number: 5000 cells per well), maintained in MEM (32360, Gibco)+10% FCS (30-3702, PAN)+Na-Pyruvat (PO4-43100, PAN)+Nonessential amino acids (P08-32100, PAN) at time points that are indicated by changes in cell characteristics as visualized by changes of impedance (cell indices) measurements upon drug addition. Accordingly, gene expression profiles were determined at 6 h, 24 h, 72 h and 147 h upon Paclitaxel administration. […] It includes genes involved in various biological functions such as cell cycle regulation and cell proliferation, apoptosis, signal transduction and transcriptional regulation, fatty acid and sterol metabolism and IFN-mediated signaling (Bani, M., R., et al., Molecular Cancer Therapeutics 3(2) (2004) 111-121). With respect to the two time points (6 h and 24 h upon drug administration) microarray studies had been performed by other groups and we were able to reproduce 70% of their results (Bani, M., R., et al., Molecular Cancer Therapeutics 3(2) (2004) 111-121). In addition, we determined mRNA levels at two additional time points (72 h and 147 h upon drug administration) during prolonged drug exposure of cells.
Procedure: Seeding, Growth. […]
5000 MCF-7 cells were seeded per well and 24 h later treated with a final concentration of 12.5 nM Paclitaxel (dissolved in DMSO). […] The Paclitaxel concentration we applied in this experiment represents twice the IC50-value of this drug for MCF-7 cells and had been determined in an dose-response experiment (Paclitaxel titration) with the XCELLIGENCE system and an appropriate tool of the XCELLIGENCE software SP1.0.0.0807 (data not shown).

[2] = tested on: MCF-7 cells; assay: Gene expression profiling by q-RT-PCR (LIGHTCYCLER 480) of Paclitaxel-treated MCF-7 cells; type: cell-based, human
Description: We have performed gene expression profiling experiments of MCF-7 cells treated with Paclitaxel for a period of approximately 150 h. Within this example the gene expression of 20 different genes (gene accession numbers in brackets) were monitored:
We intended to determine and reproduce gene expression changes with time upon drug treatment, the majority of which had been observed and described before by others in an independent in vivo-study based on DNA microarray technique using ovarian carcinoma xenografts ([…], M., R., et al., Molecular Cancer Therapeutics 3(2) (2004) 111-121; Boschke, C., B., et al., Uni Tubingen (2008)). The time points for our pharmacokinetic screens have been chosen depending on cellular changes in response to Paclitaxel-treatment which were monitored by impedance-based real time cell analysis using the XCELLIGENCE system. Independent from the quality and extent of these cellular changes we harvested non-treated controls and drug-treated cells at their appropriate time points (6, 24, 72 and 147 h), isolated the mRNA by means of the MAGNA PURE System, reverse transcribed the total mRNA into cDNA using a common Thermocycler, pooled and diluted the cDNA samples and amplified the predefined set of specific genes as well as house keeping genes in triplicates by q-RT-PCR making use of the LIGHTCYCLER 480 System. Necessary primer pairs were synthesized and tested for functionality in-house in combination with a bioinformatically determined UPL probe (data not shown). The LIGHTCYCLER software 1.5 allowed the relative quantification of the selected mRNA abundance under Paclitaxel-treated conditions with respect to the corresponding non-treated situation (reference). Results are corrected by the values determined for internal standard genes (stably expressed house keeping genes), like β-Actin, β-Globin and GAPDH. […]

[3] = tested on: HT29 cells; assay: Cell Index monitoring (XCELLIGENCE RTCA SP) of HT29 cells treated with paclitaxel; type: cell-based; settings: 50 nM paclitaxel
Description: HT29 cells were cultivated in parallel in McCoy's medium in either T75 cell culture bottles (for RNA isolation) or an E-Plate 96 (for cell growth monitoring) and in three regular microtiter plates (for WST-1 assay).
The surface of the bottom of a single well of the E-Plate 96 is given with approx. 0.2 cm^2. T75 cell culture bottles have 75 cm^2.
After 24 hours incubation at 37° C. paclitaxel was added to a final concentration of 50 nM. As the 2 mM paclitaxel stock was dissolved in DMSO, control cells were treated with DMSO to a final concentration of 0.0025%. In addition cells treated with medium only were monitored in parallel.
All cells were further incubated at 37° C. The growth of the cells was monitored real time on the RTCA SP Station over the whole course of the experiment (FIG. 3).
To ensure that untreated cells are within the early logarithmic growth phase at the time point of paclitaxel treatment, cells were treated with 50 nM paclitaxel at approx. ⅓ of their maximum Cell Index at 20 hours after seeding.

[4] = tested on: HT29 cells; assay: qPCR with RealTime Ready Human Apoptosis Panel, 96 in paclitaxel-treated HT29 cells; type: cell-based
Description: (§1) Cells were harvested for RNA isolation after one, two, four and 24 hours. Cell number was determined and portions of 10^6 cells were used for RNA isolation applying the High Pure RNA Isolation Kit following the manufacturer's instruction.
(§2) From each RNA population 1 μg total RNA was used for cDNA synthesis with the Transcriptor First Strand cDNA Synthesis Kit.
(§3) The total yield of one cDNA synthesis reaction starting from 1 μg RNA was used as template for each RealTime ready Human Apoptosis Panel, 96 or RealTime ready Human Cell Cycle Panel, 96. Total PCR reaction volume per well was 20 μl with Light Cycler480 Probes Master. The easy-to-use macro for the panel containing PCR protocol, sample setup and analysis was applied on LIGHTCYCLER480 software 1.5.
(§4) Four time points, one, two, four and twenty four hours were selected for qPCR runs on the LIGHTCYCLER480 system using the RealTime Ready Human Apoptosis Panel, 96 (FIG. 5) and the RealTime Ready Human Cell Cycle Panel, 96 (FIG. 7). Gene names corresponding to the numbers that can be found in the package insert of both panels (Roche Applied Science).

[5] = tested on: HT29 cells; assay: qPCR with RealTime Ready Human Cell Cycle Panel, 96 in paclitaxel-treated HT29 cells; type: cell-based; settings: 50 nM paclitaxel vs DMSO control; time points 1, 2, 4, 24 hours
Description: as §1, §2, §3, §4

For `CC(=O)O[C@H]1C(=O)[C@@]2(C)[C@H]([C@H](OC(=O)c3ccccc3)[C@]3(O)C[C@H](OC(=O)[C@H](O)[C@@H](NC(=O)c4ccccc4)c4ccccc4)C(C)=C1C3(C)C)[C@]1(OC(C)=O)CO[C@@H]1C[C@@H]2O` [Paclitaxel], the “time upon drug addition at which proliferation curve switches from descending to ascending course” value [1] was “approximately 20 h”, the “course of proliferation curve (impedance / cell index) versus control” value ([1]; control 0.1% DMSO) was “lower impedance or cell index values” and the “time upon drug treatment at which proliferation curve again begins to descend” value ([1]; descent continues up to ca. 150 h) was “around 70 h”. The “gene expression changes of investigated genes” value ([2]; 6 h upon drug addition, 12.5 nM Paclitaxel, vs non-treated) was “only small changes in expression”, the “gene expression changes of selected genes (e.g. CDKN1A, FOS, PIG8, TOP2A, MADH2)” value ([2]; 24 h after Paclitaxel treatment, 12.5 nM) was “become more obvious” and the “gene expression changes (ISG15, IFITM1, BNIP3, SLUG, ARF-1, CDC2, PLAB, IDI1)” value ([2]; later stages (72 and 147 h) of Paclitaxel treatment, 12.5 nM) was “strongest gene expression changes”. For the same molecule, the “time after treatment to reach minimum Cell Index” value [3] was “approx. 24 hours”, the “Cell Index (normalized)” value ([3]; 24 hours after treatment) was “zero” and the “Cell Index change” value ([3]; within the first hour after treatment) was “slightly increased”. The “number of genes significantly (more than 4 times) up/down regulated” value ([4]; 50 nM paclitaxel vs DMSO control, all time points compared) was 6 genes, the “time of most significant alteration of expression level of apoptosis related genes” value ([4]; 50 nM paclitaxel vs DMSO control, time points 1, 2, 4, 24 hours) was “within the first hour” and the “significant gene expression changes compared to DMSO control” value ([4]; two and four hours after paclitaxel treatment, 50 nM) was “no genes show significant expression changes”. For the same molecule, the “time of most dramatic effects on cell cycle gene expression” value [5] was “within the first four hours”.
